pIC50: −log10 of the molar value.
Assays:
[1] = test system: K562; experiment: Cytotoxicity against human K562 cells after 72 hrs by alamar blue assay; assay type: functional, cell-based; conditions: K562, 72 h
[2] = test system: Neutrophil; experiment: (§1) Anti-inflammatory activity in human neutrophils assessed as inhibition of fMLP/CB-induced superoxide anion generation preincubated for 5 mins followed by cytochalasin B addition for 3 mins and fMLP for 10 mins by superoxide dismutase inhibitable reduction of ferricytochrome c based assay; assay type: functional, cell-based
[3] = test system: HT-29; experiment: Cytotoxicity against human HT-29 cells after 72 hrs by alamar blue assay; assay type: functional, cell-based; conditions: HT-29, 72 h
[4] = test system: A549; experiment: Cytotoxicity against human A549 cells after 72 hrs by alamar blue assay; assay type: functional, cell-based; conditions: A549, 72 h
[5] = test system: Neutrophil; experiment: Anti-inflammatory activity in human neutrophils assessed as inhibition of fMLP/CB-induced elastase release at 10 uM preincubated for 5 mins followed by fMLP/CB stimulation for 10 mins using MeO-Suc-Ala-Ala-Pro-Val-p-nitroanilide as substrate; assay type: functional
[6] = test system: Neutrophil; experiment: Anti-inflammatory activity in human neutrophils assessed as inhibition of fMLP/CB-induced elastase release preincubated for 5 mins followed by fMLP/CB stimulation for 10 mins using MeO-Suc-Ala-Ala-Pro-Val-p-nitroanilide as substrate; assay type: functional, cell-based
[7] = test system: P388; experiment: Cytotoxicity against mouse P388 cells after 72 hrs by alamar blue assay; assay type: functional, cell-based; conditions: P388, 72 h
[8] = test system: Neutrophil; experiment: as §1, with “generation at 10 uM” for “generation”, “assay relative to control” for “assay”; assay type: functional
[9] = test system: DLD-1; experiment: Cytotoxicity against human DLD1 cells after 72 hrs by alamar blue assay; assay type: functional, cell-based; conditions: DLD-1, 72 h

Row | Structure (SMILES) | pIC50 [1] | pIC50 [2] | pIC50 [3] | pIC50 [4] | inhibition at 10 µM [5] | pIC50 [6] | pIC50 [7] | inhibition at 10 µM [8] | pIC50 [9]
1 | CC(C)[C@@H](C)C[C@H](O)[C@@H](C)[C@H]1CC[C@H]2[C@@H]3[C@@H](O)C=C4C[C@@H](O)CC[C@]4(C)[C@H]3CC[C@]12C | < 4.40 | < 5.00 | 4.44 | < 4.40 | 79.2% | 5.23 | 4.50 | 12.6% | < 4.40
2 | CC(C)[C@@H](C)[C@@]1(C)C[C@@H]1[C@@H](C)[C@H]1CC[C@@H]([C@@]23C=C[C@]4(C[C@@H](O)CC[C@]4(C)C2=O)OO3)[C@]1(C)CCO | 4.65 | 5.23 | 4.56 | 4.80 | 111% | 5.81 | < 4.40 | 67% | 4.56
3 | CC(C)[C@@H](C)[C@@]1(C)C[C@@H]1[C@@H](C)[C@H]1CC[C@H]2[C@@H]3[C@H](O)C=C4C[C@@H](O)CC[C@]4(C)[C@@]3(O)OC[C@]12C | < 4.40 | < 5.00 | < 4.40 | < 4.40 | 25.2% | < 5.00 | < 4.40 | 1.21% | < 4.40
4 | COc1cccc2c1C(=O)c1c(O)c3c(c(O)c1C2=O)C[C@@](O)(C(=O)CO)C[C@@H]3O[C@H]1C[C@H](N)[C@H](O)[C@H](C)O1 [DOXORUBICIN] | – | – | 6.06 | – | – | – | – | – | –
